Source: US7875727B2, “Benzimidazole vascular damaging agents” (Angiogene Pharmaceuticals Ltd., priority 1999, dated 2011)

Key:
[1] = test system: tumour vasculature in CaNT tumour-bearing mice; assay: Activity against tumour vasculature measured by fluorescent dye (Hoechst 33342 functional vascular volume); type: in vivo; details: compared to control
Description: Activity Against Tumour Vasculature Measured by Fluorescent Dye.
One minute later, animals were killed and tumours excised and frozen; 10 μm sections were cut at 3 different levels and observed under UV illumination using an Olympus microscope equipped with epifluorescence. […] All estimates were based on counting a minimum of 100 fields from sections cut at the 3 different levels. Results are expressed as percentage reduction in vascular volume compared to control.

vasculature = details: administered at the MTD; cited from earlier work
[2] = 500 mg/kg i.p., 6 h after drug treatment
[3] = 50 mg/kg i.p., 24 h after drug treatment

For `CCCSc1ccc2[nH]c(NC(=O)OC)nc2c1` [Albendazole, reference compound], the “% Reduction in vascular volume” value [1, 2] was 51%.

With `COC(=O)Nc1nc2cc(C(=O)c3ccc(O)cc3)ccc2[nH]1` [Example 1, Methyl [5(6)-(4-hydroxybenzoyl)-IH-benzimidazol-2vl]carbamate] the “% Reduction in vascular volume” value [1, 2] was 81%.

In the case of `COC(=O)Nc1nc2cc(C(=O)c3ccc(OP(=O)(O)O)cc3)ccc2[nH]1` [Example 2, Methyl [5(6)-(4-phosphonooxybenzoyl)-1H-benzimidazol-2yl]carbamate], the “% Reduction in vascular volume” value [1, 2] was 80%.

In the case of `COC(=O)Nc1nc2cc(Sc3ccc(OP(=O)(O)O)cc3)ccc2[nH]1` [Example 3, Methyl [5(6)-(4-phosphonooxyphenylthio)-IH-benzimidazol-2yl]carbamate], the “% Reduction in vascular volume” value [1, 3] was 22%.

For `COC(=O)Nc1nc2cc(Sc3ccc(N)cc3)ccc2[nH]1` [Example 4, Methyl [5(6)-(4-aminophenylthio)-1H-benzimidazol-2yl]carbamate], the “% Reduction in vascular volume” value [1, 3] was 53%.

For `COC(=O)Nc1nc2cc(Sc3ccc(NC(=O)[C@H](C)N)cc3)ccc2[nH]1` [Example 5, Methyl [5(6)-(4-alanylaminophenylthio)-IH-benzimidazol-2yl]carbamate], the “% Reduction in vascular volume” value [1, 3] was 99%.

For `COC(=O)Nc1nc2cc(Sc3ccc(O)cc3)ccc2[nH]1` [Example 12, Methyl [5(6)-(4-hydroxyphenylthio)-1H-benzimidazol-2yl]carbamate], the “% Reduction in vascular volume” value [1, 3] was 51%.

With `COC(=O)Nc1nc2cc(Oc3ccc(OP(=O)(O)O)cc3)ccc2[nH]1` [Example 14, Methyl [5(6)-(4-phosphonooxyphenoxy)-1H-benzimidazol-2yl]carbamate] the “% Reduction in vascular volume” value [1, 3] was 39%.

With `COC(=O)Nc1nc2cc(C(=NO)c3ccc(O)cc3)ccc2[nH]1` [Example 15, Methyl [5(6)-(4-hydroxy-@-hydroxyiminobenzyl)-1H-benzimidazol-2yl]carbamate] the “% Reduction in vascular volume” value [1, 3] was 61%.

With `COC(=O)Nc1nc2cc(Oc3ccc(NC(C)=O)cc3)ccc2[nH]1` [Example 16, Methyl [5(6)-(4-(acetylamino)phenoxy)-1H-benzimidazol-2yl]carbamate] the “% Reduction in vascular volume” value [1, 3] was 56%.

With `COC(=O)Nc1nc2cc(Oc3ccc(N)cc3)ccc2[nH]1` [Example 17, Methyl [5(6)-(4-aminophenoxy)-1H-benzimidazol-2yl]carbamate] the “% Reduction in vascular volume” value [1, 3] was 62%.

For `COC(=O)Nc1nc2cc(Oc3cccc(N)c3)ccc2[nH]1` [Example 18, Methyl [5(6)-(3-aminophenoxy)-1H-benzimidazol-2yl]carbamate], the “% Reduction in vascular volume” value [1, 3] was 47%.

With `COC(=O)Nc1nc2cc(Oc3ccc(O)cc3)ccc2[nH]1` [Example 19, Methyl [5(6)-(4-hydroxyphenoxy)-1H-benzimidazol-2yl]carbamate] the “% Reduction in vascular volume” value [1, 3] was 88%.

With `COC(=O)Nc1nc2cc(Oc3ccccc3O)ccc2[nH]1` [Example 20, Methyl [5(6)-(2-hydroxyphenoxy)-1H-benzimidazol-2yl]carbamate] the “% Reduction in vascular volume” value [1, 3] was 69%.

For `COC(=O)Nc1nc2cc(Oc3cccc(O)c3)ccc2[nH]1` [Example 21, Methyl [5(6)-(3-hydroxyphenoxy)-1H-benzimxdazol-2yl]carbamate], the “% Reduction in vascular volume” value [1, 3] was 74%.

For `COC(=O)Nc1nc2cc(Sc3ccccc3)ccc2[nH]1` [Fenbendazole, reference compound], the “% Reduction in vascular volume” value [1, 2] was 44%.

With `COC(=O)Nc1nc2cc(C(=O)c3ccccc3)ccc2[nH]1` [Mebendazole, reference compound] the “% Reduction in vascular volume” value [1, 2] was 56%.

For `COC(=O)Nc1nc2cc(C(=O)c3cccs3)ccc2[nH]1` [Nocodazole, reference compound], the “% Reduction in vascular volume” value ([1]; 100 mg/kg i.p., 24 h after drug treatment) was 23%.

In the case of `CCCOc1ccc2[nH]c(NC(=O)OC)nc2c1` [Oxibendazole, reference compound], the “% Reduction in vascular volume” value ([1]; 100 mg/kg i.p., 6 h after drug treatment) was 43%.

For `CC(=O)O[C@@]12CO[C@@H]1C[C@H](O)[C@@]1(C)C(=O)[C@H](O)C3=C(C)[C@@H](OC(=O)[C@H](O)[C@@H](NC(=O)OC(C)(C)C)c4ccccc4)C[C@@](O)([C@@H](OC(=O)c4ccccc4)[C@H]21)C3(C)C` [docetaxel], the vascular-damaging activity (vasculature) is given as “no vascular-damaging activity”.
